Laboratory results reported in the supplement of paper PMC10307832.

Assays:
Assay in all cases: relative viability (nuclei count vs DMSO), 5 days (fraction); higher = more cells survive
Pictilisib + Trametinib = compound: CS(=O)(=O)N1CCN(Cc2cc3nc(-c4cccc5[nH]ncc45)nc(N4CCOCC4)c3s2)CC1 [Pictilisib] + CC(=O)Nc1cccc(-n2c(=O)n(C3CC3)c(=O)c3c(Nc4ccc(I)cc4F)n(C)c(=O)c(C)c32)c1 [Trametinib] (partner 0.02 µM)
Summary of the method: (§1)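 After 5 days of treatment, lung cancer cells in 1536-well plates were fixed and stained in a single step (final 0.05% Triton X-100, 1% formaldehyde, 1 ug/ml Hoechst) and their nuclei counted on 4× images. Treatment had been applied by pin tool the day after seeding as one drug alone or as a fixed anchor-drug dose with five library-drug doses (not always all listed) in √10 steps. Relative viability is the nuclei count of treated wells divided by that of vehicle wells, and values are medians of duplicate plates.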

Pictilisib + Lapatinib = compound: CS(=O)(=O)N1CCN(Cc2cc3nc(-c4cccc5[nH]ncc45)nc(N4CCOCC4)c3s2)CC1 [Pictilisib] + CS(=O)(=O)CCNCc1ccc(-c2ccc3ncnc(Nc4ccc(OCc5cccc(F)c5)c(Cl)c4)c3c2)o1 [Lapatinib] (partner 2 µM)
Summary of the method: as §1

Pictilisib + Pemetrexed = compound: CS(=O)(=O)N1CCN(Cc2cc3nc(-c4cccc5[nH]ncc45)nc(N4CCOCC4)c3s2)CC1 [Pictilisib] + Nc1nc2[nH]cc(CCc3ccc(C(=O)N[C@@H](CCC(=O)O)C(=O)O)cc3)c2c(=O)[nH]1 [Pemetrexed] (partner 0.2 µM)
Summary of the method: as §1

MK-2206 + OSI-027 = compound: NC1(c2ccc(-c3nc4ccn5c(=O)[nH]nc5c4cc3-c3ccccc3)cc2)CCC1 [MK-2206] + COc1cccc2cc(-c3nc([C@H]4CC[C@H](C(=O)O)CC4)n4ncnc(N)c34)[nH]c12 [OSI-027] (partner 0.5 µM)
Summary of the method: as §1

MK-2206 + Phenformin = compound: NC1(c2ccc(-c3nc4ccn5c(=O)[nH]nc5c4cc3-c3ccccc3)cc2)CCC1 [MK-2206] + N=C(N)NC(=N)NCCc1ccccc1 [Phenformin] (partner 250 µM)
Summary of the method: as §1

| Cell Line | relative viability (Pictilisib + Trametinib; first compound 0.02 µM) | relative viability (Pictilisib + Trametinib; first compound 0.06325 µM) | relative viability (Pictilisib + Trametinib; first compound 0.6325 µM) | relative viability (Pictilisib + Trametinib; first compound 2 µM) | relative viability (Pictilisib + Lapatinib; first compound 0.02 µM) | relative viability (Pictilisib + Lapatinib; first compound 0.06325 µM) | relative viability (Pictilisib + Lapatinib; first compound 0.6325 µM) | relative viability (Pictilisib + Lapatinib; first compound 2 µM) | relative viability (Pictilisib + Pemetrexed; first compound 0.02 µM) | relative viability (Pictilisib + Pemetrexed; first compound 0.06325 µM) | relative viability (Pictilisib + Pemetrexed; first compound 0.6325 µM) | relative viability (Pictilisib + Pemetrexed; first compound 2 µM) | relative viability (MK-2206 + OSI-027; first compound 0.01 µM) | relative viability (MK-2206 + OSI-027; first compound 0.03162 µM) | relative viability (MK-2206 + OSI-027; first compound 0.3162 µM) | relative viability (MK-2206 + OSI-027; first compound 1 µM) | relative viability (MK-2206 + Phenformin; first compound 0.01 µM) | relative viability (MK-2206 + Phenformin; first compound 0.03162 µM) | relative viability (MK-2206 + Phenformin; first compound 0.3162 µM) | relative viability (MK-2206 + Phenformin; first compound 1 µM) |
| --- | --- | --- | --- | --- | --- | --- | --- | --- | --- | --- | --- | --- | --- | --- | --- | --- | --- | --- | --- | --- |
| NCI-H1944 | 0.451 | 0.349 | 0.337 | 0.183 | 0.969 | 0.753 | 0.597 | 0.402 | 0.649 | 0.487 | 0.469 | 0.287 | 0.478 | 0.447 | 0.361 | 0.326 | 0.197 | 0.217 | 0.169 | 0.185 |
| NCI-H1651 | 0.753 | 0.825 | 0.7 | 0.656 | 0.919 | 0.721 | 0.568 | 0.424 | 0.516 | 0.591 | 0.519 | 0.38 | 0.786 | 0.684 | 0.807 | 0.784 | 0.362 | 0.302 | 0.336 | 0.365 |
| EBC-1 |  |  |  |  | 0.237 | 0.208 | 0.237 | 0.204 |  |  |  |  |  |  |  |  |  |  |  |  |
| COR-L 105 | 0.382 | 0.4 | 0.432 | 0.38 | 0.394 | 0.401 | 0.338 | 0.325 | 1.19 | 1.04 | 1.22 | 0.885 | 0.497 | 0.713 | 0.531 | 0.556 | 0.51 | 0.472 | 0.392 | 0.489 |
| RERF-LC-KJ | 0.828 | 0.859 | 0.708 | 0.56 | 0.86 | 0.842 | 0.771 | 0.549 | 0.459 | 0.478 | 0.448 | 0.404 | 0.647 | 0.531 | 0.417 | 0.381 | 0.413 | 0.423 | 0.408 | 0.333 |
| NCI-H1793 | 0.397 | 0.448 | 0.332 | 0.211 | 0.693 | 0.963 | 0.61 | 0.336 | 0.828 | 0.754 | 0.522 | 0.276 | 0.274 | 0.288 | 0.229 | 0.199 | 0.386 | 0.47 | 0.206 | 0.218 |
| CAL-12T | 0.332 | 0.331 | 0.221 | 0.178 | 0.6 | 0.638 | 0.653 | 0.468 | 1.31 | 1.4 | 1.18 | 1.04 | 0.67 | 0.554 | 0.452 | 0.485 | 0.492 | 0.561 | 0.626 | 0.564 |
| NCI-H1993 | 0.543 | 0.469 | 0.523 | 0.488 | 0.878 | 0.895 | 0.783 | 0.705 | 0.608 | 0.605 | 0.449 | 0.442 | 0.493 | 0.579 | 0.469 | 0.595 | 0.496 | 0.491 | 0.562 | 0.568 |
| A549 |  |  |  |  | 0.93 | 0.906 | 0.595 | 0.606 |  |  |  |  |  |  |  |  | 0.173 | 0.152 | 0.203 | 0.124 |
